Laboratory results reported in article PMC5560734, “Diflunisal inhibits prestin by chloride-dependent mechanism” (PLoS ONE, 2017).

Target: T1, prestin (SLC26A5) (Mus musculus, UniProt Q99NH7)
T1 construct: endogenous prestin in isolated C57BL/6 mouse outer hair cells
T1 sequence (Q99NH7 1-744): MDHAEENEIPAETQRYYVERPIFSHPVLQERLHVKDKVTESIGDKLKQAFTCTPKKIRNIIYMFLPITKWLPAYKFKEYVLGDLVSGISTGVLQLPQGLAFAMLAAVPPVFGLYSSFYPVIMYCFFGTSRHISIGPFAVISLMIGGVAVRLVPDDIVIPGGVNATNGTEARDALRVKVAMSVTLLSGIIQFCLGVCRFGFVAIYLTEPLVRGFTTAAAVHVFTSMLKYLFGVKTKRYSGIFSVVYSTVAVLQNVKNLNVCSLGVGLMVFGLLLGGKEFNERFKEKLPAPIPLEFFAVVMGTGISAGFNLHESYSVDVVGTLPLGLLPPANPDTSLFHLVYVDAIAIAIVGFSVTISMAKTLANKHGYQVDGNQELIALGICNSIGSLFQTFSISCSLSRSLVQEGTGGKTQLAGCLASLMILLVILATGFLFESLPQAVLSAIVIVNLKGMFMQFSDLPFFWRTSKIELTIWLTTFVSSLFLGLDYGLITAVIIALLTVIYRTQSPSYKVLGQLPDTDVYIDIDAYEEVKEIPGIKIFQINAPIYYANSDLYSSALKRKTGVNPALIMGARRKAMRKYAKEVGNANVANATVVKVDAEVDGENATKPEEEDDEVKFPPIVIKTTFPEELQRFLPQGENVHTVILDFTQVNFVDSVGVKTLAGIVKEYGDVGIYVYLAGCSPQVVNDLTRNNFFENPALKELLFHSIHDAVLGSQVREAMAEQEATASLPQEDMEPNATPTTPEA
Experiment: whole-cell patch clamp of outer hair cells, non-linear capacitance / charge transfer (Qmax) at […] intracellular chloride
Assay type: cell-based

- IC50: 98 µM
SMILES: O=C(O)c1cc(-c2ccc(F)cc2F)ccc1O [DFL, diflunisal]
